Laboratory results from USRE39576E1, “Enzyme inhibitors” (Smithkline Beecham Corporation, priority 1994, dated 2007).
Counter-ions that a name gives are not always drawn. Like-named read-outs stand apart in the source and are kept apart here.

Legend:
[1] = molecular target: T1, human iNOS (Homo sapiens, UniProt P35228); assay: Inhibition of recombinant human iNOS (baculovirus/insect cell cytosol, spectrophotometric microtitre plate assay); type: biochemical; parameters: made in house; host or cells: baculovirus/insect cell system; insect cytosol assayed unpurified; details: 37° C., L-arginine 30 μM, steady-state 15-30 min; mean ±SEM (n)
Procedure: Inhibition of recombinant human iNOS was determined following expression in a baculovirus/insect cell system (Charles et al (1994) In: The Biology of Nitric Oxide 4, Moncada S., Feelisch M., Busse R. and Higgs E. A., eds., Portland Press, London, pp 316-320), assaying the insect cytosol for NO synthase in a microtitre plate assay based on the spectrophotometric assay described previously (Knowles et al (1990) Biochem. Biophys. Res. Commun. 172, 1042-1048). The assay was conducted at 37° C. in reaction mixtures containing HEPES (100 mM), DTT (0.1 mM), tetrahydrobiopterin (5 μM), NADPH (100 μM), haemoglobin (5 μM), L-arginine (30 μM) and inhibitor (0-300 μM), measuring the absorbance change at 405-420 nm, and determining the steady-state inhibition between 15 and 30 minutes incubation.

[2] = molecular target: T2, human eNOS (Homo sapiens, UniProt P29474); assay: Inhibition of purified human eNOS ([14C]-L-arginine to citrulline conversion); type: biochemical; details: purified human enzyme, 30° C., 0.5 μM [14C]-L-arginine; read-out: Purified Human Enzyme Kd tNOS
T2 construct: made in house
Procedure: (§1) The inhibition of purified human NO synthases was determined following preparation of human nNOS (Furfine et al. (1993) Biochem. 32, 8512-8517), iNOS (Sherman et al. (1993) Biochem. 32, 11600-11605) and eNOS (Garvey et al. (1994) Arch. Bioch. Biophys., in press) as described. Their activity was monitored by the conversion of [^14C]-L-arginine to citrulline as described by Schmidt et al. ((1991) Proc. Natl. Acad. Sci. USA 88, 365-369) in reaction mixtures (100 μl) containing 50 mM HEPES pH 7.0, 8 μM tetrahydrobiopterin, 1 mM NADPH and 0.5 μM [^14C]-L-arginine (30,000 cpm) at 30° C.

[3] = molecular target: T3, eNOS in rat aortic rings (Rattus norvegicus, UniProt Q62600); assay: Inhibition of eNOS in situ in rat aortic rings (basal tone, intact endothelium); type: cell-based; details: rings with intact endothelium; for inhibition at 300 µM: read-out: inhibition at 300 μM, cNOS in rat sortic rings; for IC50: basal tone, mean ±SEM (n), read-out: IC50 cNOS in rat sortic rings
T3 construct: from tissue; host or cells: rat thoracic aorta rings with intact endothelium
Procedure: (§2) The inhibition of eNOS and iNOS in situ in rat aortic rings was assessed by measuring the increases in ring tension caused by NO synthase inhibition. For studies of basal tone (reflecting eNOS), rings of thoracic aorta with intact endothelium were prepared as described previously (Rees et al. (1989) Br. J. Pharmacol. 96, 418-424) and cumulative concentration curves obtained for the inhibitors in the presence of a threshold concentration of phenylephrine (ED10≈10 nM). For studies of induced smooth muscle tone (reflecting iNOS), endothelium-denuded rings were exposed to LPS (0.1 μg/ml from S. typhosa) in the presence of phenylephrine at approximately ED90 for 6 h as described previously (Rees et al. (1990) Biochem. Biophys. Res. Commun. 173, 541-547). During this time a progressive loss of tone occurred because of iNOS induction. Cumulative concentration curves were then obtained for the inhibitors.

[4] = molecular target: T4, human nNOS (Homo sapiens, UniProt P29475); assay: Inhibition of purified human nNOS ([14C]-L-arginine to citrulline conversion); type: biochemical; details: 30° C., 0.5 μM [14C]-L-arginine, read-out: Purified Human Enzyme Kd nNOS
T4 construct: made in house
Procedure: as §1

[5] = molecular target: T1, human iNOS; assay: Inhibition of purified human iNOS ([14C]-L-arginine to citrulline conversion); type: biochemical; parameters: made in house; details: for Selectivity for iNOS vs. cNOS: purified human enzymes, ratio of Kd; for Selectivity for iNOS vs. cNOS [relative to LNMMA]: value in square brackets
Procedure: as §1

[6] = molecular target: T5, iNOS in rat aortic rings (Rattus norvegicus, UniProt Q06518); assay: Inhibition of iNOS in situ in rat aortic rings (LPS-induced loss of tone, endothelium-denuded rings); type: cell-based; details: for IC50: endothelium-denuded rings, LPS 6 h, mean ±SEM (n), read-out: IC50 iNOS in rate sortic rings; for Selectivity for iNOS: rat aortic rings, iNOS vs eNOS
T5 construct: During this time a progressive loss of tone occurred because of iNOS induction; from tissue; host or cells: rat thoracic aorta rings, endothelium-denuded, exposed to LPS
Procedure: as §2

[7] = molecular target: T6, eNOS (Mus musculus, UniProt P70313); assay: Blood pressure in normal conscious mice (eNOS in vivo); details: conscious female CD-1 mice, dose range 1-1000 mg/kg, intravenous
T6 construct: from tissue; host or cells: whole animal: female CD-1 mice, untreated
Procedure: (§3) The inhibition of eNOS and iNOS in vivo was assessed by the effects of inhibitors on blood pressure in either normal (eNOS) or endotoxin shocked (iNOS) conscious mice. Female CD-1 mice (25-35 g) were anaesthetised briefly with isofluorane (2%). Cannula lines were implanted in the femoral vein, tunnelled subcutaneously to exit at the top of the back and connected to a swivel tether system for continuous monitoring of blood pressure and for inhibitor administration respectively. Following recovery from surgery, animals with mean blood pressures in the normal range (90-110 mm Hg) were used to obtain cumulative concentration curves for inhibitors on blood pressure either without further treatment (“normal mice”) or 7 h after administration of lipopolysaccharide (12.5 mg/kg of LPS from E. coli 026:B6 intravenously over 30 s) to induce shock (“shocked mice”).

[8] = test system: iNOS; assay: Endotoxin induced vascular (plasma) leakage in rats; type: in vivo
Procedure: The effects of Example 7 on endotoxin induced vascular leakage were assessed in rats as described by Laszlo et al ((1994) Brit. J. Pharmacol. 111 1309-1315). […] However, Example 7 did abolish the iNOS-dependent delayed plasma leakage, with an ED50 of 1 mg/kg.

[9] = molecular target: T7, iNOS (Mus musculus, UniProt P29477); assay: Blood pressure in endotoxin shocked conscious mice (iNOS in vivo); details: conscious female CD-1 mice, 7 h after LPS 12.5 mg/kg i.v.
T7 construct: from tissue; host or cells: whole animal: female CD-1 mice, 7 h after LPS
Procedure: as §3

[10] = purified human iNOS, 30° C., 0.5 μM [14C]-L-arginine, read-out: Purified Human Enzyme Kd iNOS

| IC50 [1] [µM] | Kd [2] [µM] | inhibition at 300 µM [3] [%] | IC50 [3] [µM] | Kd [4] [µM] | Selectivity for iNOS vs. cNOS [5] | Kd [5, 10] [µM] | Selectivity for iNOS vs. cNOS [relative to LNMMA] [5] | IC50 [6] [µM] | Selectivity for iNOS [6] | Structure (SMILES) | effect on blood pressure in normal mice [7] | aggravation of the endotoxin-induced plasma leakage ([8]; doses up to 5 mg/kg, administered concurrently with endotoxin) | ED50, abolition of iNOS-dependent delayed plasma leakage ([8]; endotoxin induced) [mg/kg] | effect on blood pressure in shocked mice [9] | Kd ([5]; footnote: inhibition strongly time dependant on iNOS, read-out: Kd on iNOS, time dependent inhibition) [µM] |
| --- | --- | --- | --- | --- | --- | --- | --- | --- | --- | --- | --- | --- | --- | --- | --- |
| > 300 |  |  |  |  |  |  |  |  |  | N=C(COCc1ccccc1)NCCS(=O)(=O)CC(N)C(=O)O (stereo not drawn) [Example 4, hydrobromide] |  |  |  |  |  |
| 95 ± 3 |  |  |  |  |  |  |  |  |  | CSCC(=N)NCCS(=O)(=O)CC(N)C(=O)O (stereo not drawn) [Example 5, 2-Amino-6-(2-methylthio-1-imioethylamino)-4,4-dioxo-4-thiohexanoic acid] |  |  |  |  |  |
| 5.5 ± 0.55 | 23 | 8 | > 300 | 26 | 12 | 1.9 | 33 | 1.7 ± 0.7 | >>200-fold | Br.Br.N=C(CF)NCCS(=O)(=O)CC(N)C(=O)O (stereo not drawn) [Example 1, 2-Amino-6-(1-imino-2-fluoroethylamino)-4,4-dioxo-4-thiahexanoic acid dihydrobromide] |  |  |  |  |  |
| > 300 |  |  |  |  |  |  |  |  |  | N=C(CO)NCCS(=O)(=O)CC(N)C(=O)O (stereo not drawn) [Example 6, 2-Amino-6-(2-hydroxy-1-iminoethylamino)-4,4-dioxo-4-thiahexanoic acid 1.67 hydrochloride 0.33 hydrobromide] |  |  |  |  |  |
|  | 100 | 42 | > 300 | 68 | 11 | 9.1 | 30 | 2.7 ± 0.2 | >100 fold | CC(=N)NCC[S+]([O-])CC(N)C(=O)O (stereo not drawn) [Example 8, 2-Amino-6-(1-iminoethylamino)-4-oxo-4-thiahexanoic acid] |  |  |  |  |  |
| 30 ± 3 |  | 26 | > 300 |  |  |  |  | 33 ± 13 | >10-fold | COCC(=N)NCCS(=O)(=O)CC(N)C(=O)O (stereo not drawn) [Example 2, 2-Amino-6-(1-imino-2-methoxyethylamino)-4,4-dioxo-4-thiohexanoic acid dihydrobromide dihydrate] |  |  |  |  |  |

| Structure (SMILES) | IC50 [1] [µM] | Kd [2] [µM] | inhibition at 300 µM [3] [%] | IC50 [3] [µM] | Kd [4] [µM] | Selectivity for iNOS vs. cNOS [5] | Kd [5, 10] [µM] | Selectivity for iNOS vs. cNOS [relative to LNMMA] [5] | IC50 [6] [µM] | Selectivity for iNOS [6] | effect on blood pressure in normal mice [7] | aggravation of the endotoxin-induced plasma leakage ([8]; doses up to 5 mg/kg, administered concurrently with endotoxin) | ED50, abolition of iNOS-dependent delayed plasma leakage ([8]; endotoxin induced) [mg/kg] | effect on blood pressure in shocked mice [9] | Kd ([5]; footnote: inhibition strongly time dependant on iNOS, read-out: Kd on iNOS, time dependent inhibition) [µM] |
| --- | --- | --- | --- | --- | --- | --- | --- | --- | --- | --- | --- | --- | --- | --- | --- |
| CC(=O)OCC(=N)NCCS(=O)(=O)CC(N)C(=O)O (stereo not drawn) [Example 3, dihydrobromide] | > 300 |  |  |  |  |  |  |  |  |  |  |  |  |  |  |
| CC(=N)NCCS(=O)(=O)CC(N)C(=O)O (stereo not drawn) [Example 7, 2-Amino-6-(1-iminoethylamino)-4,4-dioxo-4-thiahexanoic acid] | 14 ± 0.6 | 29 |  | 101 ± 21 | 18 | 27 | 2.9 | 73 | 1.5 ± 0.3 | 67-fold | no effect on blood pressure | did not cause aggravation | 1 | restore fully the blood pressure to the normal range | 0.1 |
